Source: ChEMBL document CHEMBL4418261, “Pyripyropene derivatives having acat2 inhibiting activity and stable to metabolizing enzymes” (2017)
pIC50: −log10 of the molar value.

Assays:
[1] = target: T1, Sterol O-acyltransferase 2 (Mus musculus) (UniProt O88908); assay: Potency index, ratio of PRD-043 IC50 to test compound IC50 for inhibition ACAT2 in mouse hepatic microsome membranes using [1-14C]oleoyl coenzyme A as substrate incubated for 5 mins; format: microsomes
T1 sequence (whole entry): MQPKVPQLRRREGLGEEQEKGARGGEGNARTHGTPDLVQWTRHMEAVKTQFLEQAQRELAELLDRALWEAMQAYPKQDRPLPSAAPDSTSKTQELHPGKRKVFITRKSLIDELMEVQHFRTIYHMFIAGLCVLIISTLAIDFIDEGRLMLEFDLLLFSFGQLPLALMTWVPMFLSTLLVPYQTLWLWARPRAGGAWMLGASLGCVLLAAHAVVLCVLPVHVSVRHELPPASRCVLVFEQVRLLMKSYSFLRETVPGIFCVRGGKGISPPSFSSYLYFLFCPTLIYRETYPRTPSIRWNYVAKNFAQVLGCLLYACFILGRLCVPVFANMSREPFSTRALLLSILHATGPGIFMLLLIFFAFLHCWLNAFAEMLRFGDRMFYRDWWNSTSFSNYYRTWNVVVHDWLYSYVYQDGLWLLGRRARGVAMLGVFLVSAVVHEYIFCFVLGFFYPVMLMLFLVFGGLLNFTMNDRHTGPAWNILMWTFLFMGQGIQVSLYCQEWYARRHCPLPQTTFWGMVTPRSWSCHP

[2] = target: T2, Sterol O-acyltransferase 2 (Mus musculus, UniProt O88908); assay: Inhibition of ACAT2 in mouse hepatic microsome membranes using [1-14C]oleoyl coenzyme A as substrate incubated for 5 mins; format: microsomes, Liver
T2 sequence (O88908 whole entry): T1 sequence (whole entry)

[3] = Half life in Sprague-Dawley rat hepatic microsomes at 6 ug/ml by LC-MS method; format: ADME, Microsome; details: liver microsomes

Row | Ratio IC50 [1] | pIC50 [2] | half-life at 6 ug/ml [3] [h] | SMILES
1 | < 20 | > 9.30 | > 9 | COc1ccc(CNC(=O)[C@]2(C)[C@@H](OC(C)=O)CC[C@]3(C)[C@H]4[C@@H](O)c5c(cc(-c6cccnc6)oc5=O)O[C@]4(C)[C@@H](OC(=O)c4ccc(C#N)cc4)C[C@H]32)c(OC)c1
2 | 10 to 20 | 9.00 to 9.30 | > 9 | COC(=O)[C@]1(C)[C@@H](OC(C)=O)CC[C@]2(C)[C@H]3[C@@H](O)c4c(cc(-c5cccnc5)oc4=O)O[C@]3(C)[C@@H](OC(=O)c3ccc(C#N)cc3)C[C@H]21
3 | 10 to 20 | 8.00 to 9.00 | > 9 | Cc1ccccc1[C@@H]1OC[C@@]2(C)[C@@H]3C[C@H](OC(=O)c4ccc(C#N)cc4)[C@@]4(C)Oc5cc(-c6cccnc6)oc(=O)c5[C@H](O)[C@@H]4[C@@]3(C)CC[C@@H]2O1
4 | < 20 | > 9.30 | > 9 | CC(=O)O[C@H]1CC[C@]2(C)[C@H]3[C@@H](O)c4c(cc(-c5cccnc5)oc4=O)O[C@]3(C)[C@@H](OC(=O)c3ccc(C#N)cc3)C[C@H]2[C@]1(C)C(=O)O
